Values joined by “and” are separate entries in the source; they are usually repeats but may differ in a detail not shown here. Equal values may be shown once. “Also recorded” adds a separate entry of the source.
Key:
[1] = target: T1, H. lacusprofundi β-galactosidase enzyme (Halorubrum lacusprofundi, UniProt B9LW38); assay: Steady-state kinetic inhibition of purified β-galactosidase (ONPG); type: biochemical; conditions: for type of inhibition: Lineweaver-Burk / Dixon plots
T1 construct: made in house; host or cells: Halobacterium sp; NRC-1 (pRK42)
T1 sequence (B9LW38 1-700): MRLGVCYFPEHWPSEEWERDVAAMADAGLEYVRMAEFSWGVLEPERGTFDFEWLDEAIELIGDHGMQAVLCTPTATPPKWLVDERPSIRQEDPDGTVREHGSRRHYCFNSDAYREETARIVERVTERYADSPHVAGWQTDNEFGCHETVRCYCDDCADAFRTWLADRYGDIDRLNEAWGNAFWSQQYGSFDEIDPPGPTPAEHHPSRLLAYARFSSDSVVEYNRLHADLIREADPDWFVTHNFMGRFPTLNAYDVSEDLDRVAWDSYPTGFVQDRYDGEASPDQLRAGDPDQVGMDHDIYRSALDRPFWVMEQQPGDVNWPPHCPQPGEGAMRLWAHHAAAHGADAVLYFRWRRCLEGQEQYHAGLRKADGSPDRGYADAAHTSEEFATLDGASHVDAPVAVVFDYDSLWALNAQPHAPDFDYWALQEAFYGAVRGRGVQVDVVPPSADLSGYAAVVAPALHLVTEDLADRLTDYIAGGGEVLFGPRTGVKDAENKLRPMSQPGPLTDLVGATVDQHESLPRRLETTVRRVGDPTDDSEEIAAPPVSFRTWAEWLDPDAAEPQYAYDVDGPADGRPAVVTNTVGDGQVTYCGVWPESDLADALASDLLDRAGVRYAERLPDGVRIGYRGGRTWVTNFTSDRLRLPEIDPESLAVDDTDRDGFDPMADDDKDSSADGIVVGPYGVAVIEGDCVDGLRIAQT
Experimental: To purify β-galactosidase, cultures of Halobacterium sp. NRC-1 (pRK42) (Karan et al., [2013]) were grown to late-log phase (OD600 ∼ 1.0), harvested, resuspended in binding buffer (20 mM phosphate buffer, 2.0 M NaCl, 10% (v/v) glycerol, 30 mM imidazole, pH 7.4), and lysed by sonication (Model 50 Sonic Dismembrator, ThermoFisher Scientific, Waltham, MA). Cell debris was removed by centrifugation (25,000g, 4°C, 10 min) in an Eppendorf 5417C centrifuge, and resulting crude extract was filtered through a 0.2 μm polyethersulfone filter (ThermoFisher Scientific, Waltham, MA). The proteins were purified by using Nickel HisTrap HP Columns (GE Healthcare, Chicago, IL), equilibrated, and washed with binding buffer, and eluted sequentially with 2 M NaCl, 100 mM phosphate buffer (pH 7.4) supplemented with 40, 80, 100, 200, and 500 mM imidazole.
Column fractions were tested for activity with o-nitrophenyl-β-D-galactopyranoside (ONPG, ThermoFisher Scientific, Waltham, MA). Active fractions were combined and protein concentration estimated by absorption at 280 nm with a Shimadzu UV-1601 spectrophotometer (Shimadzu Corporation, Kyoto, Japan). To confirm purity, the protein was analyzed by 10% SDS-PAGE followed by staining with Coomassie Blue (Millipore Sigma, Billerica, MA).
The inhibitory properties of Mg^2+ and ClO4^− ions on the β-galactosidase enzyme were tested through steady-state kinetics with a Shimadzu UV-1601 spectrophotometer. The assay solution containing 10 μg/mL enzyme was preincubated at 50°C followed by addition of ONPG at three different concentrations (1, 2.5, and 5 mM), and absorption was recorded at 420 nm. V0, the Michaelis constant (Km), as well as Vmax, were determined with UV Probe ver. 4.23 software (Shimadzu Corporation, Kyoto, Japan). kcat was calculated from given values of Km and Vmax. After the kinetic experiments were recorded, Lineweaver-Burk plots for each concentration of the inhibitory ion were used to determine whether the inhibition was competitive or noncompetitive. KI was determined by using Dixon plots, which use the reciprocal velocity of multiple steady-state kinetic experiments at multiple substrate and inhibitor concentrations to extrapolate the concentration of inhibitor that results in half-maximal inhibition (Yoshino and Murakami, [2009]). All experiments were run in triplicate and averages used for kinetic analysis.

methanogens = test system: methanogens; parameters: method as in Kral et al., 2004; conditions: grown on Mars soil simulant; ref Kral et al., 2004; cited from earlier work
Halorubrum lacusprofundi [2] = assay: Aerobic growth rate of Halorubrum lacusprofundi with added salts; type: cell-based
Experimental: (§1) For aerobic growth, cultures of halophiles were shaken in the light in test tubes at 42°C in CM^+ for Halobacterium sp. NRC-1 and at 37°C in ATCC 1682 media for H. lacusprofundi (Berquist et al., [2007]), adjusted to the desired concentration of NaClO4, MgCl2, and Mg(ClO4)2. For anaerobic growth, cultures were grown in the dark without shaking, essentially as described previously (Oren et al., [2014]). OD600 was recorded with a Spectronic 200 (ThermoFisher Scientific, Waltham, MA) test tube reader. Growth rates were calculated by using the slope of a line of regression calculated from early to mid-log phase.

Halobacterium sp. NRC-1 [3] = assay: Aerobic growth rate of Halobacterium sp. NRC-1 with added salts; type: cell-based; conditions: Mg2+ added
Experimental: as §1

Halorubrum lacusprofundi [4] = assay: Anaerobic growth assay of Halorubrum lacusprofundi; type: cell-based; conditions: 40 mM (0.04 M) perchlorate, dark, no oxygen, 8 days
Experimental: as §1

Halobacterium sp. NRC-1 [5] = assay: Anaerobic growth assay of Halobacterium sp. NRC-1; type: cell-based; conditions: 40 mM NaClO4, dark, no oxygen, 8 days
Experimental: as §1

[6] = test system: Methanobacterium articum M2 VKM B-2372; parameters: method as in Shcherbakova et al., 2015; conditions: 9.8 mM NaClO4; ref Shcherbakova et al., 2015; cited from earlier work
[7] = test system: Methanobacterium veterum MK4 VKM B-2440; parameters: method as in Shcherbakova et al., 2015; conditions: 9.8 mM NaClO4; ref Shcherbakova et al., 2015; cited from earlier work
Methanosarcina sp. = test system: Methanosarcina sp.; parameters: method as in Shcherbakova et al., 2015; conditions: 9.8 mM NaClO4; ref Shcherbakova et al., 2015; cited from earlier work

SMILES | type of inhibition [1] | concentration up to which methanogens metabolize (methanogens) | highest concentration at which a measurable growth rate was recorded (Halorubrum lacusprofundi [2]; ATCC 1682 medium) | inhibition of growth at 1.2 M (Halorubrum lacusprofundi [2]; Halorubrum lacusprofundi, 1.2 M Mg2+ (MgCl2 added), read-out: decrease in growth rate) | inhibition of growth at 1.4 M (Halorubrum lacusprofundi [2]; Halorubrum lacusprofundi, 1.4 M Mg2+ (MgCl2 added), read-out: decrease in growth rate) | concentration up to which a substantial growth rate is retained / no significantly deleterious effect (Halorubrum lacusprofundi [2]; MgCl2 added, listed as Mg^2+) | concentration up to which no significantly deleterious effect on growth (Halobacterium sp. NRC-1 [3]) | inhibition at 250000 µM ([1]; 0.5 M Na+ replaced with 0.25 M Mg2+ using magnesium chloride, read-out: decrease in catalytic efficiency) | type of inhibition ([1]; listed as Mg^2+) | anaerobic growth with perchlorate (Halorubrum lacusprofundi [4]) | anaerobic growth with perchlorate (Halobacterium sp. NRC-1 [5]) | type of inhibition ([1]; listed as perchlorate) | type of inhibition ([1]; listed as perchlorate ions) | type of inhibition ([1]; listed as sodium perchlorate) | protein precipitation (salting-out) ([1]; at the concentrations tested) | reduction in methanogenesis [6] | reduction in methanogenesis [7] | reduction in methanogenesis (Methanosarcina sp.)
[O-][Cl+3]([O-])([O-])O [Mg(ClO4)2, magnesium perchlorate] | mixed inhibitor; also recorded: mixed inhibition | up to 0.06 M | – | – | – | – | – | – | – | – | – | – | – | – | – | – | – | –
[Mg+2] [MgCl2, magnesium chloride] | competitive inhibitor | – | 1.4 M | 40% | 80% | 0.9 M and ~1 M | ~1 M | 70% | competitive inhibition | – | – | – | – | – | – | – | – | –
[O-][Cl+3]([O-])([O-])O [NaClO4, sodium perchlorate] | – | – | – | – | – | – | – | – | – | able to grow anaerobically | incapable of anaerobic growth | very weak noncompetitive inhibitor | noncompetitive inhibitor | noncompetitive inhibition | no protein precipitation | 80% | 80% | 80%

Reference: PMC5910040, “An Antarctic Extreme Halophile and Its Polyextremophilic Enzyme: Effects of Perchlorate Salts” (Astrobiology, 2018)
